Key:
[1] = In vivo metabolism of CBN in female mice, plasma levels by targeted LC/MS/MS; design: species or system C57BL/6 mice
Procedure: Initially dissolved in ethanol, CBN was combined with a volume of Tween 80, constituting 6% of the total solution volume for injection. Ethanol was eliminated via vacuum evaporation, and saline was added to prepare a 4 mg/mL solution. CBN (20 mg/kg) or vehicle was administered to C57BL/6 mice intravenously (IV) through the retro-orbital sinus or intraperitoneally (IP) at the lower right quadrant of the abdomen. Animals were euthanized at 30- or 120 min postinjection. Blood samples, collected via cardiac puncture into heparin tubes, underwent cold centrifugation at 4500 rpm for 15 min to isolate plasma. Plasma and whole liver samples were flash-frozen at −80 °C for subsequent analysis. Our decision to use female mice for this experiment was based on the availability of age-matched mice in the colony at the time of the experiment.
Mice were anaesthetized with a 3% inhalant dose of isoflurane until their respiratory rate decreased to 50% of baseline (i.e., 40–60 breaths/min) and the righting reflex was abolished. Mice were subsequently removed from the induction chamber and laid on their side. Using the index finger and thumb of the nondominant hand, the skin above and below the eye was retracted until a slight protrusion from the socket was noted. A 29G1/2 needle was inserted, bevel down, into the medial canthus at an approximate 45-degree angle until slight resistance was noted. Volume was slowly infused at a rate of 15uL/second. The needle was subsequently removed from the eye socket, and ophthalmic ointment was added.
Animals were gently restrained by scruff, and the injection site at the lower right quadrant of the abdomen was identified. The needle was inserted at a 60-degree angle to the body, and the plunger was lightly withdrawn to ensure the needle was not in contact with viscera or organs before dispensing volume.
200 μL plasma samples were collected and used for extraction using 1 mL of Hexane: Ethyl acetate (8:2 v/v) following a similar protocol described above.
Samples were analyzed using the Sciex QTrap 6500+ system (Framingham, MA) with Waters Acquity I- class plus UPLC. Software Analyst 1.7.1 was used for data acquisition.
The LC separation was performed on a Waters Acquity UPLC BEH column (2.1 × 100 mm, 1.7 μm) with mobile phase A (0.1% formic acid in water) and mobile phase B (0.1% formic acid in acetonitrile). The flow rate was 0.5 mL/min unless noted otherwise. The linear gradient was as follows: 0–0.5 min, 70%A; 2 min, 20%A; 4–4.2 min, 0%A; 4.21–5.2 min, 0%A (0.8 mL/min); 5.3–6.9 min, 70%A. The autosampler was set at 10 °C, and the column was kept at 50 °C. The injection volume was 5 μL.
Mass spectra were acquired under positive electrospray ionization (ESI) with the ion spray voltage of 4500 V. The source temperature was 500 °C. The curtain gas, ion source gas 1, and ion source gas 2 were 32, 50, and 70 psi, respectively. Multiple reaction monitoring (MRM) was used for quantitation with the MRM transition of CBN (m/z 311.2 → m/z 269.1), CBN-1′–OH (m/z 327.2 → m/z 253.1), CBN-11-OH (m/z 327.2 → m/z 128.1), CBN-p-quinone (m/z 325.2 → m/z 283.1) and EPEA-d4 as internal standard (m/z 350.3 → m/z 66.1).

NO = NO levels in LPS-stimulated BV2 microglial cells; assay type: cell-based
Procedure: (§1) The BV2 microglial cells were subjected to the treatment of LPS both in the absence and presence of CBN and its selected metabolites. The seeding density for this assay was 1 × 10^5 cells/well. The cells were initially treated with the molecules for 4 h before being stimulated with LPS (25 ng/mL). The NO assay was performed 24 h after the treatment with LPS. The NO assay was performed according to the manufacturer’s protocol, and NO levels were quantified using nitrate standard curves. For the assay, 50 μL of cell media was used in a 96-well plate, and the absorbance was recorded at 540 nm. All measurements were performed in n = 5.

IL-6 = IL-6 ELISA in LPS-stimulated BV2 microglial cells; assay type: cell-based; details: LPS-stimulated BV2, 5 μM
Procedure: as §1
(§2) ELISA assays of IL-6, IL-10 (Item No. 88–7105), and Arginase 1 were performed using the same supernatant with which we had completed the NO and LDH assays. The culture media was collected, and the IL-6 (Thermo Scientific) and Arginase 1 (abcam) assays were performed using the specific monoclonal antibodies as per the manufacturer’s instructions.

IL-10 = IL-10 ELISA in LPS-stimulated BV2 microglial cells; assay type: cell-based; details: LPS-stimulated BV2, 1–5 μM
Procedure: as §1, §2

Arginase 1 = Arginase 1 ELISA in LPS-stimulated BV2 microglial cells; assay type: cell-based
Procedure: as §1, §2

DRG neurons = assay: Calcium responses of cultured DRG sensory neurons; assay type: cell-based; details: cultured mouse DRG neurons, 50 μM × 15 s
Procedure: 9 CBN and 11-OH CBN activate DRG neurons with similar response magnitudes but differ in their percentage of neurons activated and time to peak response. Calcium response traces of representative cultured mouse DRG neurons following application of CBN (A) and 11-OH CBN (B) 50 μM × 15 s (arrow). […] Mean value ± SEM (CBN: n = 59; 11-OH CBN: n = 29, two-tailed t test, Prism GraphPad).

CB1 receptors = target: CB1 receptors; design: method as in ref 10 (Rhee et al., citation mark lost in text); details: COS-7 cell lines; ref 10 (Rhee et al.); cited from earlier work
CB2 receptors = target: CB2 receptors; design: method as in ref 10 (Rhee et al., citation mark lost in text); details: COS-7 cell lines; ref 10 (Rhee et al.); cited from earlier work
TRPV4 = test system: TRPV4; design: method as in ref 11 (De Petrocellis et al., citation mark lost in text); details: ref 11 (De Petrocellis et al.); cited from earlier work
TRP channel = test system: TRP channel; design: method as in ref 11 (De Petrocellis et al., citation mark lost in text); details: stimulation by 1 mM carvacrol; ref 11 (De Petrocellis et al.); read-out: IC50, prevention of intracellular calcium increase upon carvacrol; cited from earlier work
CYP3A4 [2] = target: T1, CYP3A4 (Homo sapiens, UniProt P08684, S18F); assay: NADPH oxidation assay with CYP3A4 nanodisc and CPR; details: triplicate
CB1 receptor = CB1 receptor (Homo sapiens, UniProt P21554); assay: G protein nanoBRET assay, antagonist mode, CB1 receptor; details: 50 μM after pretreatment with 1 μM CP-55940
CB2 receptor = CB2 receptor (Homo sapiens, UniProt P34972); assay: G protein nanoBRET assay, antagonist mode, CB2 receptor; details: 50 μM after pretreatment with 1 μM CP-55940
CYP3A4 [3] = target: T1, CYP3A4; assay: CYP3A4-mediated CBN metabolism; assay type: in vitro ADME; design: polyhistidine (C); made in house; host or cells: E. coli DH5alpha; details: targeted and untargeted metabolomics

T1 sequence (P08684 with tags, fused parts or gaps S18F limits assumed): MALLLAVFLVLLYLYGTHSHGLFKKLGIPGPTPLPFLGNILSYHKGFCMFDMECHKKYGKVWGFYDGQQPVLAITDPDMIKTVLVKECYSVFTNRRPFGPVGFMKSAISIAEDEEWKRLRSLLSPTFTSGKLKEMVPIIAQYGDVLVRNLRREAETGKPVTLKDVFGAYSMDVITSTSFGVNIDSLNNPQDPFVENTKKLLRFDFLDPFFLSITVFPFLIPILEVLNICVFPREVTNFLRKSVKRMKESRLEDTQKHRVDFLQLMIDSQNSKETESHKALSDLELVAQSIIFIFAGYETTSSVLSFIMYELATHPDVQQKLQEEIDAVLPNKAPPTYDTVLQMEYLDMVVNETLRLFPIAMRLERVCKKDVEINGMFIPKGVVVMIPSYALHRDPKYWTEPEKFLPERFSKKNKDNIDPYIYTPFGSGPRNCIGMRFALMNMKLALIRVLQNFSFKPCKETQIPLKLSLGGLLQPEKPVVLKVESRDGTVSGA
CB1 receptor, sequence (P21554 whole entry): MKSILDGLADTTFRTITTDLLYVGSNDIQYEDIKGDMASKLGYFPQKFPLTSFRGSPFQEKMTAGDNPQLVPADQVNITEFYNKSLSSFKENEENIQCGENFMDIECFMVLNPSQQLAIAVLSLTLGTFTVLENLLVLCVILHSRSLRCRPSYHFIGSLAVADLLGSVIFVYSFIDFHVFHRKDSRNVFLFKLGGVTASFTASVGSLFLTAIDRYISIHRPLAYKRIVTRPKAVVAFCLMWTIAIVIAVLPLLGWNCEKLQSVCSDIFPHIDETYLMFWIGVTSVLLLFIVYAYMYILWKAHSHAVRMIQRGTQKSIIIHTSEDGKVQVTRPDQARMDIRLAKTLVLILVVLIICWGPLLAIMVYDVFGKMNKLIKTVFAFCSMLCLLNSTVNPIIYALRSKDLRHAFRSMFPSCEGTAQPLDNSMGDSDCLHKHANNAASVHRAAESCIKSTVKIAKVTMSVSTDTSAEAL
CB2 receptor, sequence (P34972 whole entry): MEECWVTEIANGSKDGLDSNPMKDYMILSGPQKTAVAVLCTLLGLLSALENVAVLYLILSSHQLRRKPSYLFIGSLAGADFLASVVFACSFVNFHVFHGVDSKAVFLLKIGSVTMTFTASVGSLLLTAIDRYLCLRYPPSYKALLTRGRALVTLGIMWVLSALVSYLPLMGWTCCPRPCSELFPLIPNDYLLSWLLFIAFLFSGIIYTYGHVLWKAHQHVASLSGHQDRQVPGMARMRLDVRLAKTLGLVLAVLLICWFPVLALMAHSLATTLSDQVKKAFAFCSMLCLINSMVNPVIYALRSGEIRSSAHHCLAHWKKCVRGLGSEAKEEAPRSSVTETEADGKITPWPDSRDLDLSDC

CCCCCc1cc(O)c2c(c1)OC(C)(C)c1ccc(C)cc1-2 [CBN, Cannabinol]
reduction of plasma level between 0.5 and 2 h ([1]; IP administration of CBN): 3 fold | reduction of plasma level between 0.5 and 2 h ([1]; IV administration of CBN): ~3 fold | amount of CBN available in plasma, intravenous relative to intraperitoneal ([1]; female mice, CBN 20 mg/kg, plasma): 3.0 times | production of NO (NO; LPS-stimulated BV2, 5 μM): slightly lower production of NO | change in NO levels compared to cells with only LPS treatment (NO; LPS-stimulated BV2, 1, 2.5 and 5 μM): no detectable significant (ns) change | IL-6 levels (IL-6): reduction in IL-6 levels | IL-10 levels (IL-10): concentration-dependent increase in IL-10 levels | Arginase1 levels (Arginase 1): slight increase in Arginase1 levels | Ca2+ response (%) (DRG neurons): 38.9 ± 4.3% | DRG neuron activation (%) (DRG neurons): 29.3 ± 4.9% | Response Time (DRG neurons): 40.7 ± 4.8 s | percentage of DRG neurons activated (DRG neurons): 29.3 ± 4.9% | time to peak response (DRG neurons): 40.7 ± 4.8 s | Ki (CB1 receptors): 211 ± 35 nM | Ki (CB2 receptors): 126 ± 26 nM | efficacy in activating TRPV4 compared to ionomycin (TRPV4): 15.3–26.1% | IC50 (TRP channel): 9400 ± 100 nM | rate of NADPH oxidation in the presence of the compound (CYP3A4 [2]): 249.731±14625 nmol/min/nmol | inhibition of CB1 activation (CB1 receptor): significant but partial inhibition | inhibition of CB2 receptor (CB2 receptor): partial inhibition | metabolism of CBN by CYP3A4 (CYP3A4 [3]): did not metabolize
